How the values were obtained:
[1] = system: HCT-116 MTAP(-/-) deficient cells; assay: Inhibition of proliferation of HCT-116 MTAP(-/-) deficient cells (Cell-Titer Glo); format: cell-based; details: 8 days
Outline: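 Cells in log-phase growth, RPMI-1640 with 10% FBS, seeded and left overnight at 37°C, 5% CO2. Compound tested at 0–10,000 nM (10 points, 3-fold, 0.1% DMSO) for 8 days at 37°C, 5% CO2. Viability read by CellTiter-Glo luminescence.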

[2] = system: HCT-116 MTAP wild-type cells; assay: Inhibition of proliferation of HCT-116 MTAP wild-type cells (Cell-Titer Glo); format: cell-based; details: 8 days
Outline: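 MTAP wild-type HCT-116 cells were seeded, cultured overnight and then exposed to compound from 10,000 nM down in a 10-point, 3-fold series (0.1% DMSO). Plates were incubated 8 days at 37°C, 5% CO2. Proliferation was read by Cell-Titer Glo viability luminescence.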

[3] = Mouse pharmacokinetic experiment (IV and PO, plasma); format: in vivo, ICR male mice; details: male, mouse, plasma; ICR mice, PO(10mg/kg) vs IV(3mg/kg); read-out: Bioavailability F (%)
Protocol: II. Mouse Pharmacokinetic Experiment
The compounds used in this experiment are specific embodiments of the present invention, with reference to compound AMG473 as an example from Amgen's patent WO 2022/169948A1, identified as example 473.
ICR male mice, N=3/group; sourced from Zhejiang Vital River Laboratory Animal Technology Co., Ltd.
3. Drug Preparation and Administration
Single oral (PO) administration to ICR mice: Compounds were dissolved in dimethyl sulfoxide, added to polyethylene glycol 400 and sterile water, and then adjusted to a clear solution with a small amount of 1 mol/L hydrochloric acid. After overnight fasting, the mice were orally gavaged with a dose of 10 mg/kg. Single intravenous (IV) administration to ICR mice: Compounds were dissolved in dimethyl sulfoxide, added to polyethylene glycol 400 and sterile water, and then adjusted to a clear solution with a small amount of 1 mol/L hydrochloric acid. After overnight fasting, the mice received tail vein injections with a dose of 3 mg/kg.
Approximately 30 µL/time point blood samples were collected via the tail vein. Potassium ethylenediaminetetraacetate was used as an anticoagulant, and samples were centrifuged at 4000 g/min for 5 minutes at 4°C within 1 hour. Blood sampling time points were 0.0833 (IV), 0.25, 0.5, 1, 2, 4, 6, 8, 24 hours. Samples were stored in a -20°C freezer.
Plasma samples (30µL, 10µL sample + 20µL blank plasma) were mixed with 200µL ice-cold acetonitrile containing internal standards. After vortexing for 30 seconds, samples were centrifuged at 4000g/min for 20 minutes. One hundred microliters of the supernatant were transferred to a 96-well plate, followed by the addition of 200µL ultrapure water. After vortexing for 30 seconds, 5µL or 10µL were injected into LC-MS/MS for analysis. Table 7: Pharmacokinetic Data

U87MG MTAP(-/-) cells = assay: Inhibition of proliferation of U87MG MTAP(-/-) cells (CellTiter-Glo); format: cell-based; details: cell proliferation, 6 days
Protocol: Test 7: Assay for Inhibitory Activity of Compounds against U87MG MTAP(-/-) Cell Proliferation
Materials and Cells: The U87MG MTAP(-/-) cell line was purchased from ATCC (USA). Cell culture media, fetal bovine serum (FBS), and penicillin-streptomycin were purchased from Thermo Fisher Scientific (USA). 384-well plates were purchased from PerkinElmer (USA). The CellTiter-Glo assay kit was purchased from Promega (USA).
Cell Culture: U87MG MTAP(-/-) cells were cultured in a medium supplemented with 10% fetal bovine serum (FBS) and 1% penicillin-streptomycin at 37°C with 5% CO2. Only cells in the logarithmic growth phase were used for experiments.
Cell Proliferation Inhibition Assay: The antiproliferative activity of the compounds against U87MG MTAP(-/-) cells was assessed using the CellTiter-Glo assay kit. Cell suspensions were adjusted to the appropriate density and seeded into 384-well plates at a volume of 40 µL per well, then incubated overnight at 37°C with 5% CO2. Compounds (40 nL) were added to each well to achieve final concentrations ranging from 0 to 10,000 nM (starting concentration 10,000 nM, 3-fold serial dilutions, 10 dose points), with a final DMSO concentration of […]. The cell plates were incubated at 37°C with 5% CO2 for 6 days. Subsequently, 40 µL of CellTiter-Glo reagent was added to measure cell viability. Paclitaxel was used as a control compound.

Row | Compound | IC50 ([1]; Homo sapiens, HCT-116, 192 h) | IC50 ([2]; Homo sapiens, HCT-116, 192 h) | bioavailability [3] | IC50 (U87MG MTAP(-/-) cells; Homo sapiens, U-87 MG, 144 h) | IC50 [1] | IC50 [2] | IC50 (U87MG MTAP(-/-) cells)
1 | CN(C(=O)c1ccc2nc(N)c3cncn3c2c1)[C@@H]1COc2cc(C(F)(F)C(F)(F)F)ccc21 [Example 130, (S)-4-amino-N-methy 1-N-(6-(perfluoroethyl)-2,3-dihydrobenzofuran-3-yl)imidazo[1,5-a]quinoxaline-8-carbox amide] | 5.8 nM | 1290 nM | 77.5% |  |  |  | 
2 | CN(C(=O)c1cc2c(cc1F)nc(N)c1cncn12)[C@@H]1COc2cc(S(C)(=O)=O)ccc21 [Example 38, (S)-4-amino-7-fluoro-N-methyl-N-(6-(methylsulfonyl)-2,3-dihydrobenzofuran-3-yl)imi dazo[1,5-a]quinoxaline-8-carboxamide] | 30 nM | 4060 nM |  | 443 nM |  |  | 
3 | Cc1ncc(-c2ccc3c(c2)OC[C@H]3N(C)C(=O)c2cc3c(cc2F)nc(N)c2cncn23)cn1 [Example 40, (S)-4-amino-7-fluoro-N-methyl-N-(6-(2-methylpyrimidin-5-yl)-2,3-dihydrobenzofuran-3-yl)imidazo[1,5-a]qu inoxaline-8-carboxamide] | 32.1 nM | 9200 nM |  | 153 nM |  |  | 
4 | Cc1ncc2c(N)nc3ccc(C(=O)N(C)[C@@H]4COc5cc(C(F)(F)F)ccc54)cc3n12 [Example 39, (S)-4-amino-N,1-dime thyl-N-(6-(trifluoromethyl)-2,3-dihydrobenzofuran-3-yl)imidazo[1 ,5-a]quinoxaline-8-carboxamide] | 15.9 nM | 2040 nM |  | 176 nM |  |  | 
5 | CN(C(=O)c1ccc2nc(N)c3cncn3c2c1)C1COc2cc(S(F)(F)(F)(F)F)ccc21 (stereo not drawn) [Example 45, 4-amino-N-methyl-N-(6-(pentafluoro-λ^6-sulfaneyl)-2,3-dihydrobenzofuran-3-yl)imidaz o[1,5-a]quinoxaline-8-carboxamide] | 10.3 nM | 947 nM |  | 60.6 nM |  |  | 
6 | CN(C(=O)c1cc2c(cc1F)nc(N)c1cncn12)[C@@H]1COc2cc(-c3cnn(C(F)(F)F)c3)ccc21 [Example 33, (S)-4-amino-7-fluoro-N-methyl-N-(6-(1-(trifluoromethyl)-1H-pyrazol-4-yl)-2,3-dihydrobenzofuran-3-yl)imid azo[1,5-a]quinoxaline-8-carboxamide] | 15.1 nM | 2660 nM |  | 81.7 nM |  |  | 
7 | C[C@H]1OC[C@@H](N(C)C(=O)c2cc3c(cn2)nc(N)c2cncn23)c2ccc(C(F)(F)F)nc21 [Example 35, 4-amino-N-methyl-N-((5S,8R)-8-methyl-2-(trifluoromethyl)-5,8-dihydro-6H-pyrano[3,4-b]pyridin-5-yl)imida zo[1,5-a]pyrido[3,4-e] pyrazine-8-carboxamide] | 23.2 nM | 2230 nM |  | 34.8 nM |  |  | 
8 | CN(C(=O)c1ccc2nc(N)c3cncn3c2c1)[C@@H]1COc2cc(C(F)(F)F)ccc21 [Example 79, (S)-4-amino-N-methy 1-N-(6-(trifluoromethyl)-2,3-dihydrobenzofuran-3-yl)imidazo[1,5-a]quinoxaline-8-carbo xamide-3-d] |  |  |  |  | 5.6 nM | 1300 nM | 83.3 nM
9 | CCN(C(=O)c1cc2c(cc1F)nc(N)c1cncn12)[C@@H]1COc2cc(C(F)(F)F)ccc21 [Example 124, (S)-4-amino-N-ethyl-7-fluoro-N-(6-(trifluor omethyl)-2,3-dihydrobenzofuran-3-yl)imid azo[1,5-a]quinoxaline-8-carboxamide] | 6.5 nM | 634 nM |  | 64.4 nM |  |  | 
10 | CN(C(=O)c1ccc2nc(N)c3cncn3c2c1)[C@@H]1COc2cc(OC(F)(F)F)ccc21 [Example 56, (S)-4-amino-N-methy 1-N-(6-(trifluoromethoxy)-2,3-dihydrobenzofuran-3-yl)imidazo[1,5-a]quinoxaline-8-car boxamide] | 15.9 nM | 1530 nM |  | 108 nM |  |  | 
11 | COc1ccc2c(c1)OC[C@H]2N(C)C(=O)c1cc2c(cc1F)nc(N)c1cncn12 [Example 80, (S)-4-amino-7-fluoro-N-(6-methoxy-2,3-dihydrobenzofuran-3-yl)-N-methylimidazo[1,5-a]quinoxaline-8-carboxamide] | 39.3 nM | 9170 nM |  | 376 nM |  |  | 
12 | (S)-4-amino-N-methyl-N-(6-(trifluoromethyl)-2,3-dihydrobenzofuran-3-yl)imidazo[1,5-a]quinoxaline-8-carboxamide-1-d [Example 78] |  |  |  |  | 7.1 nM | 2070 nM | 211 nM
13 | Cc1cc2nc(N)c3cncn3c2cc1C(=O)N(C)[C@@H]1COc2cc(C(F)(F)F)ccc21 [Example 15, (S)-4-amino-N,7-dime thyl-N-(6-(trifluoromethyl)-2,3-dihydrobenzofuran-3-yl)imidazo[1 ,5-a]quinoxaline-8-car boxamide] | 3.5 nM | 282 nM |  | 19.8 nM |  |  | 
14 | [2H]C([2H])([2H])N(C(=O)c1cc2c(cn1)nc(N)c1cncn12)[C@@H]1COc2cc(C(F)(F)F)ccc21 [Example 75, (S)-4-amino-N-(methyl-d3)-N-(6-(trifluoromethyl)-2,3-dihydrobenzofuran-3-yl)imidazo[1,5-a]pyrido[3,4-e]pyrazine-8-carb oxamide] | 7.3 nM | 1170 nM |  | 72.1 nM |  |  | 
15 | CN(C(=O)c1cc2c(cc1F)nc(N)c1cncn12)[C@@H]1COc2cc(-c3ccnn3C)ccc21 [Example 117, (S)-4-amino-7-fluoro-N-methyl-N-(6-(1-methyl-1H-pyrazol-5-yl) -2,3-dihydrobenzofuran-3-yl)imidazo[1,5-a] quinoxaline-8-carbox amide] | 6.6 nM | 617 nM |  | 61.3 nM |  |  | 
16 | CC1OC[C@@H](N(C)C(=O)c2ccc3nc(N)c4cncn4c3c2)c2ccc(-c3cnn(C)c3)cc21 (stereo partly drawn) [Example 22, 4-amino-N-methyl-N-((4S)-1-methyl-7-(1-methyl-1H-pyrazol-4-yl)isochroman-4-yl)i midazo[1,5-a]quinoxa line-8-carboxamide] | 5.1 nM | 1690 nM |  | 81.2 nM |  |  | 
17 | Cc1cc(-c2ccc3c(c2)OC[C@H]3N(C)C(=O)c2cc3c(cc2F)nc(N)c2cncn23)on1 [Example 119, (S)-4-amino-7-fluoro-N-methyl-N-(6-(3-methylisoxazol-5-yl)-2,3-dihydrobenzofuran-3-yl)imidazo[1,5-a]qui noxaline-8-carboxamide] | 13.5 nM | 1310 nM |  | 101 nM |  |  | 
18 | COC(=O)c1ccc2c(c1)OC[C@H]2N(C)C(=O)c1ccc2nc(N)c3cncn3c2c1 [Example 122, methyl (S)-3-(4-amino-N-methylimidazo[1,5-a]quinoxaline-8-carboxamido)-2,3-dihydrobenzofuran-6-carboxylate] | 50.6 nM | > 10000 nM |  | 777 nM |  |  | 
